Where two headings read alike, the source gives them in different places.
Legend:
[1] = biological target: P2X7 (IL-1β release from THP-1 cells) (Homo sapiens (Human), UniProt Q99572); assay: IL-1β release assay; assay type: cell-based
Outline: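 THP-1 cells were differentiated with PMA 0.5 μM and primed 4 h with LPS 10 ng/ml. They were then pre-incubated 20 min with compound at 37° C and stimulated 30 min with BzATP 0.8 mM. Mature IL-1β released into the supernatant was quantified by sandwich ELISA.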

human P2X7 receptor = human P2X7 receptor (Homo sapiens (Human), UniProt Q99572); assay: Pore permeation assay (YO PRO dye uptake); assay type: cell-based
Chain of human P2X7 receptor (Q99572 whole entry): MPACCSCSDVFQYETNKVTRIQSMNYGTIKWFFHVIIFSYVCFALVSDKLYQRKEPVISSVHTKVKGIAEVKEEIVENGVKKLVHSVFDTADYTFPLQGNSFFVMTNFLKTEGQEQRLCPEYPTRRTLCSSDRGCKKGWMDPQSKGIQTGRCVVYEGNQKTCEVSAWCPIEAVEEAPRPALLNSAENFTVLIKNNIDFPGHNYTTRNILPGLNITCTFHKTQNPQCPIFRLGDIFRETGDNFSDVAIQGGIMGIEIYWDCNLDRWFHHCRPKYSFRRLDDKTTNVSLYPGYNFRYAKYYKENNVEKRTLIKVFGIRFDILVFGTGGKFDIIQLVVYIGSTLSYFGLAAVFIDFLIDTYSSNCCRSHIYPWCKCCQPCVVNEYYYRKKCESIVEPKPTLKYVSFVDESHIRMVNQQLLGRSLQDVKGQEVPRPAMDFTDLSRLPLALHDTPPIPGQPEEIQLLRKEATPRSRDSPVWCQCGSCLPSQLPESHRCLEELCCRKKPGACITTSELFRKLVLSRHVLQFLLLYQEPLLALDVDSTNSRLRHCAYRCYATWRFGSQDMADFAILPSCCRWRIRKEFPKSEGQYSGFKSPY

[2] = THP-1 cells, LPS primed, 0.8 mM BzATP, mature IL-1β by sandwich ELISA, read-out: hTHP-1/IL-ib IC50

Chain of P2X7 (IL-1β release from THP-1 cells) (Q99572 whole entry): as above

O=C(NCC1CCC(F)(F)CC1)c1cn(C[C@@H]2CCN2)c2cccc(Cl)c12 [Compound 122, (S)-1-(azetidin-2-ylmethyl)-4-chloro-N-((4,4-difluorocyclohexyl)methyl)-1H-indole-3-carboxamide]
IC50 [1]: 10 to 100 nM | IC50 (human P2X7 receptor): 10 to 100 nM

O=C(NCC1CCC(F)(F)CC1)c1cn(C[C@H]2CCN2)c2cccc(Cl)c12 [Compound 123, (R)-1-(azetidin-2-ylmethyl)-4-chloro-N-((4,4-difluorocyclohexyl)methyl)-1H-indole-3-carboxamide]
IC50 [1]: 101 to 500 nM | IC50 (human P2X7 receptor): 101 to 500 nM

O=C(NCC1(O)CCCC(F)(F)C1)c1cn(CC2CCN2)c2cccc(Cl)c12 (stereo not drawn) [Compound 124, 1-(azetidin-2-ylmethyl)-4-chloro-N-((3,3-difluoro-1-hydroxycyclohexyl)methyl)-1H-indole-3-carboxamide]
IC50 [1]: 10 to 100 nM | IC50 (human P2X7 receptor): 10 to 100 nM

O=C(NCC1(O)CCCC(F)(F)C1)c1cn(CC2CNC2)c2cccc(Cl)c12 (stereo not drawn) [Compound 125]
IC50 [1]: 10 to 100 nM | IC50 (human P2X7 receptor): 10 to 100 nM

O=C1NC[C@H](Cn2cc(C(=O)NCC3CCC(F)(F)CC3)c3c(Cl)cccc32)O1 [Compound 126, (R)-4-chloro-N-((4,4-difluorocyclohexyl)methyl)-1-((2-oxooxazolidin-5-yl)methyl)-1H-indole-3-carboxamide]
IC50 [1]: 10 to 100 nM | IC50 (human P2X7 receptor): 10 to 100 nM

O=C(NCC1CCC(F)(F)CC1)c1cn(CC2CC(F)(F)C2)c2cccc(Cl)c12 [Compound 127, 4-chloro-1-((3,3-difluorocyclobutyl)methyl)-N-((4,4-difluorocyclohexyl)methyl)-1H-indole-3-carboxamide]
IC50 [1]: 500 to 999 nM | IC50 (human P2X7 receptor): 10 to 100 nM

CC(C)OCCn1cc(C(=O)NCC2CCC(F)(F)CC2)c2c(Cl)cccc21 [Compound 128]
IC50 [1]: 101 to 500 nM | IC50 (human P2X7 receptor): 101 to 500 nM

O=C(NC[C@@]1(O)CCCC(F)(F)C1)c1cn(C[C@@H]2CCCO2)c2cccc(Cl)c12 [Compound 129]
IC50 [1]: 500 to 999 nM | IC50 (human P2X7 receptor): 101 to 500 nM

O=C(NC[C@]1(O)CCCC(F)(F)C1)c1cn(C[C@@H]2CCCO2)c2cccc(Cl)c12 [Compound 130, 4-chloro-N—(((S)-3,3-difluoro-1-hydroxycyclohexyl)methyl)-1-(((S)-tetrahydrofuran-2-yl)methyl)-1H-indole-3-carboxamide]
IC50 [1]: 10 to 100 nM | IC50 (human P2X7 receptor): 10 to 100 nM

O=C(NCC1(O)CCC(F)(F)CC1)c1cn(C[C@H]2CCCO2)c2cccc(Cl)c12 [Compound 131, (R)-4-chloro-N-((4,4-difluoro-1-hydroxycyclohexyl)methyl)-1-((tetrahydrofuran-2-yl)methyl)-1H-indole-3-carboxamide]
IC50 [1]: 10 to 100 nM | IC50 (human P2X7 receptor): 10 to 100 nM

O=C(NCC1CCC(F)(F)CC1)c1cn(C[C@@H]2CCCO2)c2cccc(Cl)c12 [Compound 132, (S)-4-chloro-N-((4,4-difluorocyclohexyl)methyl)-1-((tetrahydrofuran-2-yl)methyl)-1H-indole-3-carboxamide]
IC50 [1]: 10 to 100 nM | IC50 (human P2X7 receptor): 10 to 100 nM

O=C(NCC1(O)CCCC(F)(F)C1)c1cn(C[C@H]2CCCO2)c2cccc(Cl)c12 (stereo partly drawn) [Compound 133, 4-chloro-N-((3,3-difluoro-1-hydroxycyclohexyl)methyl)-1-(((R)-tetrahydrofuran-2-yl)methyl)-1H-indole-3-carboxamide]
IC50 [1]: 10 to 100 nM | IC50 (human P2X7 receptor): 10 to 100 nM

O=C(NCC1(O)CCC(F)(F)CC1)c1cn(C[C@@H]2CCCO2)c2cccc(Cl)c12 [Compound 134, (S)-4-chloro-N-((4,4-difluoro-1-hydroxycyclohexyl)methyl)-1-((tetra hydrofuran-2-yl)methyl)-1H-indole-3-carboxamide]
IC50 [1]: 101 to 500 nM | IC50 (human P2X7 receptor): 10 to 100 nM

O=C(NCC1CCC(F)(F)CC1)c1cn(C[C@H]2CCCO2)c2cccc(Cl)c12 [Compound 135, (R)-4-chloro-N-((4,4-difluorocyclohexyl)methyl)-1-((tetrahydrofuran-2-yl)methyl)-1H-indole-3-carboxamide]
IC50 [1]: 10 to 100 nM | IC50 (human P2X7 receptor): 10 to 100 nM

CCC1CCCC(O)(CNC(=O)c2cn(CC3CCCO3)c3cccc(Cl)c23)C1 (stereo not drawn) [Compound 137, 4-chloro-N-((3-ethyl-1-hydroxycyclohexyl)methyl)-1-((tetrahydrofuran-2-yl)methyl)-1H-indole-3-carboxamide]
IC50 [1, 2]: > 1000 nM | IC50 (human P2X7 receptor): 101 to 500 nM

CC1CC(F)(F)CC(O)(CNC(=O)c2cn(CC3CCCO3)c3cccc(Cl)c23)C1 (stereo not drawn) [Compound 138, 4-chloro-N-((3,3-difluoro-1-hydroxy-5-methylcyclohexyl)methyl)-1-((tetrahydrofuran-2-yl)methyl)-1H-indole-3-carboxamide]
IC50 [1]: 101 to 500 nM | IC50 (human P2X7 receptor): 101 to 500 nM

O=C(NCC1(O)CCCC(F)(F)C1)c1cn(CC2CCCO2)c2cccc(Cl)c12 (stereo not drawn) [Compound 139, 4-chloro-N-((3,3-difluoro-1-hydroxycyclohexyl)methyl)-1-((tetrahydrofuran-2-yl)methyl)-1H-indole-3-carboxamide]
IC50 [1]: 10 to 100 nM | IC50 (human P2X7 receptor): 10 to 100 nM

C[C@H]1CCC[C@@](O)(CNC(=O)c2cn(CC3CCCO3)c3cccc(Cl)c23)C1 (stereo partly drawn) [Compound 140, 4-chloro-N-(((1S,3S)-1-hydroxy-3-methylcyclohexyl)methyl)-1-((tetrahydrofuran-2-yl)methyl)-1H-indole-3-carboxamide]
IC50 [1]: 10 to 100 nM | IC50 (human P2X7 receptor): 10 to 100 nM

O=C(NCC1CC(C(F)(F)F)CC(F)(F)C1)c1cn(CC2CCCO2)c2cccc(Cl)c12 (stereo not drawn) [Compound 141, 4-chloro-N-((3,3-difluoro-5-(trifluoromethyl)cyclo-hexyl)methyl)-1-((tetrahydrofuran-2-yl)methyl)-1H-indole-3-carboxamide]
IC50 [1]: 10 to 100 nM | IC50 (human P2X7 receptor): 10 to 100 nM

O=C(NCC1(O)CCC(F)(F)CC1)c1cn(CC2CCCO2)c2cccc(Cl)c12 (stereo not drawn) [Compound 142, 4-chloro-N-((4,4-difluoro-1-hydroxycyclohexyl)methyl)-1-((tetrahydrofuran-2-yl)methyl)-1H-indole-3-carboxamide]
IC50 [1]: 101 to 500 nM | IC50 (human P2X7 receptor): 10 to 100 nM

C[C@@H]1CCC[C@](O)(CNC(=O)c2cn(CC3CCCO3)c3cccc(Cl)c23)C1 (stereo partly drawn) [Compound 143, 4-chloro-N-(((1R,3R)-1-hydroxy-3-methylcyclohexyl)methyl)-1-((tetrahydrofuran-2-yl)methyl)-1H-indole-3-carboxamide]
IC50 [1]: 101 to 500 nM | IC50 (human P2X7 receptor): 10 to 100 nM

O=C(NCC1CCC(F)(F)CC1)c1cn(CC2CCCO2)c2cccc(Cl)c12 (stereo not drawn) [Compound 144, 4-chloro-N-((4,4-difluorocyclohexyl)methyl)-1-((tetrahydrofuran-2-yl)methyl)-1H-indole-3-carboxamide]
IC50 [1]: 101 to 500 nM | IC50 (human P2X7 receptor): 10 to 100 nM

O=C(NCC1(O)CCCC(F)(F)C1)c1cn(CC2CCOC2)c2cccc(Cl)c12 (stereo not drawn) [Compound 146, 4-chloro-N-((3,3-difluoro-1-hydroxycyclohexyl)methyl)-1-((tetrahydrofuran-3-yl)methyl)-1H-indole-3-carboxamide]
IC50 [1]: 10 to 100 nM | IC50 (human P2X7 receptor): 10 to 100 nM

O=C(NCC1(O)CCC(F)(F)CC1)c1cn(CC2CCOC2)c2cccc(Cl)c12 (stereo not drawn) [Compound 147, 4-chloro-N-((4,4-difluoro-1-hydroxycyclohexyl)methyl)-1-((tetrahydrofuran-3-yl)methyl)-1H-indole-3-carboxamide]
IC50 [1]: 10 to 100 nM | IC50 (human P2X7 receptor): 10 to 100 nM

O=C(NCC1CCC(F)(F)CC1)c1cn(CC2CCOC2)c2cccc(Cl)c12 (stereo not drawn) [Compound 148, 4-chloro-N-((4,4-difluorocyclohexyl)methyl)-1-((tetrahydrofuran-3-yl)methyl)-1H-indole-3-carboxamide]
IC50 [1]: 10 to 100 nM | IC50 (human P2X7 receptor): 10 to 100 nM

O=C(NCC1CCC(F)(F)CC1)c1cn(CCOC2CC2)c2cccc(Cl)c12 [Compound 149, 4-chloro-1-(2-cyclopropoxyethyl)-N-((4,4-difluorocyclohexyl)methyl)-1H-indole-3-carboxamide]
IC50 [1]: 101 to 500 nM | IC50 (human P2X7 receptor): 10 to 100 nM

O=C(NCC1CCC(F)(F)CC1)c1cn(CC2COCCO2)c2cccc(Cl)c12 (stereo not drawn) [Compound 150, 1-((1,4-dioxan-2-yl)methyl)-4-chloro-N-((4,4-difluorocyclohexyl)methyl)-1H-indole-3-carboxamide]
IC50 [1]: 10 to 100 nM | IC50 (human P2X7 receptor): 10 to 100 nM

CN1CC[C@H]1Cn1cc(C(=O)NCC2CCC(F)(F)CC2)c2c(Cl)cccc21 [Compound 151, (S)-4-chloro-N-((4,4-difluorocyclohexyl)methyl)-1-((1-methylazetidin-2-yl)methyl)-1H-indole-3-carboxamide]
IC50 [1]: 10 to 100 nM | IC50 (human P2X7 receptor): 10 to 100 nM

CC1(Cn2cc(C(=O)NCC3CCC(F)(F)CC3)c3c(Cl)cccc32)CCN1 (stereo not drawn) [Compound 152, 4-chloro-N-((4,4-difluorocyclohexyl)methyl)-1-((2-methylazetidin-2-yl)methyl)-1H-indole-3-carboxamide]
IC50 [1]: 500 to 999 nM | IC50 (human P2X7 receptor): 10 to 100 nM

O=C(NCC1CCC(F)(F)CC1)c1cn(C[C@@H]2CCCN2)c2cccc(Cl)c12 [Compound 153, (S)-4-chloro-N-((4,4-difluorocyclohexyl)methyl)-1-(pyrrolidin-2-ylmethyl)-1H-indole-3-carboxamide]
IC50 [1]: 10 to 100 nM | IC50 (human P2X7 receptor; HEK293 transfected with human P2X7, BzATP 10 uM, YO PRO dye uptake, read-out: hP2X7 IC50): < 10 nM

O=C(NCC1CCC(F)(F)CC1)c1cn(C[C@H]2CCCN2)c2cccc(Cl)c12 [Compound 154, (R)-4-chloro-N-((4,4-difluorocyclohexyl)methyl)-1-(pyrrolidin-2-ylmethyl)-1H-indole-3-carboxamide]
IC50 [1]: 10 to 100 nM | IC50 (human P2X7 receptor): 10 to 100 nM

O=C(NCC1(O)CCCC(F)(F)C1)c1cn(CC2CCCN2)c2cccc(Cl)c12 (stereo not drawn) [Compound 155, 4-chloro-N-((3,3-difluoro-1-hydroxycyclohexyl)methyl)-1-(pyrrolidin-2-ylmethyl)-1H-indole-3-carboxamide]
IC50 [1, 2]: < 10 nM | IC50 (human P2X7 receptor): 10 to 100 nM

O=C(NCC1CCCC(F)(F)C1)c1cn(CC2CCCN2)c2cccc(Cl)c12 (stereo not drawn) [Compound 156, 4-chloro-N-((3,3-difluorocyclohexyl)methyl)-1-(pyrrolidin-2-ylmethyl)-1H-indole-3-carboxamide]
IC50 [1, 2]: < 10 nM | IC50 (human P2X7 receptor): 10 to 100 nM

Reference: patent publication US10323000B2, “Indole derivatives and their use in neurodegenerative diseases” (priority 2014, dated 2019)
